Our source for the solubility and minimum efficacious exposure values is patent US20100069385A1, “LIQUID FORMULATIONS OF PHOSPHOLIPASE ENZYME INHIBITORS” (WYETH, priority 2006, published 2010).

Data set [1] can be described thus: Solubility at room temperature in water, acid and basic conditions. The data set is classed as physicochemical. The following applies: free acid, below HPLC detection limit, read-out: intrinsic solubility of the free acid. How it is done: The solubility of 4-(3-{5-chloro-1-(diphenylmethyl)-2-[2-({[2-(trifluoromethyl)benzyl]sulfonyl}amino)ethyl]-1H-indol-3-yl}propyl)benzoic acid was measured at room temperature in water, acid and basic conditions.

The test system of data set [2] is rat carrageenan-induced paw edema (CPE). The data set can be described thus: Rat carrageenan-induced paw edema (CPE) study. The data set is classed as in vivo. How it is done: Data from a rat carrageenan-induced paw edema (CPE) study indicated the minimum efficacious exposure of 4-(3-{5-chloro-1-(diphenylmethyl)-2-[2-({[2-(trifluoromethyl)benzyl]sulfonyl}amino)ethyl]-1H-indol-3-yl}propyl)benzoic acid was 1360 ng*hr/ml.
Background: In the carrageenan paw model, swelling and tenderness develop within hours.

Structures are written as SMILES.

For `O=C(O)c1ccc(CCCc2c(CCNS(=O)(=O)Cc3ccccc3C(F)(F)F)n(C(c3ccccc3)c3ccccc3)c3ccc(Cl)cc23)cc1` [4-(3-{5-chloro-1-(diphenylmethyl)-2-[2-({[2-(trifluoromethyl)benzyl]sulfonyl}amino)ethyl]-1H-indol-3-yl}propyl)benzoic acid], the solubility in data set [1] is below 0.031 µg/mL. This compound also registered a minimum efficacious exposure in data set [2] of 1360 ng·h/mL.

As a reminder, the solubility is how much of the substance goes into solution per volume.
